Where two headings read alike, the source gives them in different places.
Columns and labels:
FGFR3 enzyme (Millipore) = FGFR3 enzyme (Millipore) (Homo sapiens (Human), UniProt P22607); conditions: read-out: FGFR3 IC50, ATP 140 μM
Experimental: (§1) The inhibitor potency of compounds was measured in an enzyme assay that measures peptide phosphorylation using FRET measurements to detect product formation. Inhibitors were serially diluted in DMSO and a volume of 0.5 μL was transferred to the wells of a 384-well plate. For FGFR3, a 10 μL volume of FGFR3 enzyme (Millipore) diluted in assay buffer (50 mM HEPES, 10 mM MgCl2, 1 mM EGTA, 0.01% Tween-20, 5 mM DTT, pH 7.5) was added to the plate and pre-incubated for 5-10 minutes. Appropriate controls (enzyme blank and enzyme with no inhibitor) were included on the plate. […] The plate was incubated at 25° C. for 1 hr. […] The plate was allowed to equilibrate for ˜1 hr before scanning the wells on a PheraStar plate reader.
(§2) GraphPad prism3 was used to analyze the data. The IC50 values were derived by fitting the data to the equation for a sigmoidal dose-response with a variable slope. Y=Bottom+(Top−Bottom)/(1+10^((Log IC50−X)*HillSlope)) where X is the logarithm of concentration and Y is the response.

FGFR2 = FGFR2 (Homo sapiens (Human), UniProt P21802); assay: FGFR Enzymatic Assay (FGFR2); format: biochemical;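 also: FRET read-out of peptide phosphorylation by the purified kinase, with enzyme-free blank and uninhibited enzyme as controls, potency from a variable-slope sigmoidal dose-response fit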
Experimental: as §1, §2

FGFR1 = FGFR1 (Homo sapiens (Human), UniProt P11362); assay: FGFR Enzymatic Assay (FGFR1); format: biochemical; conditions: enzyme 0.02 nM, ATP 210 μM
Experimental: as §1, §2

[1] = enzyme 0.01 nM, ATP 100 μM, read-out: FGFR2 IC50

Sequence of FGFR3 enzyme (Millipore) (P22607 23-806): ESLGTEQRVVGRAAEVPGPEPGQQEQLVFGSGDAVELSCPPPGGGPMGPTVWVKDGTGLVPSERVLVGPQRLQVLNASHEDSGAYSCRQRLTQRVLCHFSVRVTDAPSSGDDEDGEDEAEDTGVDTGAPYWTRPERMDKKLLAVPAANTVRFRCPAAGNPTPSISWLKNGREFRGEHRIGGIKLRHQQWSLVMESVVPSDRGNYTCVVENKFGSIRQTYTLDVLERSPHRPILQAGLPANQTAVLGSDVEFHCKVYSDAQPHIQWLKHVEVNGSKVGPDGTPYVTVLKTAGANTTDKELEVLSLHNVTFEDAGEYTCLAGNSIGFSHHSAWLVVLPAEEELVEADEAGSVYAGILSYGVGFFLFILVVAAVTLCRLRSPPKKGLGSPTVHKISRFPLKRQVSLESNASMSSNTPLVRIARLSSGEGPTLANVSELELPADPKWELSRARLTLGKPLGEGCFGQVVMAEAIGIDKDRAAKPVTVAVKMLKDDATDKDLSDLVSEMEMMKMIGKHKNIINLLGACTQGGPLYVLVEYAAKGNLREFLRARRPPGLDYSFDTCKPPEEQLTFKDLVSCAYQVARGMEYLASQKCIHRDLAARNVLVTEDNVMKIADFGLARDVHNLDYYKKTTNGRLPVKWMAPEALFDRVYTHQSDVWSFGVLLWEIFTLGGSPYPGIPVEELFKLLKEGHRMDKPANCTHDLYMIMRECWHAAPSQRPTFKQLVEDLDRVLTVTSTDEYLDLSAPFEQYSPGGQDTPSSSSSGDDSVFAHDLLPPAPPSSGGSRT
Sequence of FGFR1 (P11362 22-822): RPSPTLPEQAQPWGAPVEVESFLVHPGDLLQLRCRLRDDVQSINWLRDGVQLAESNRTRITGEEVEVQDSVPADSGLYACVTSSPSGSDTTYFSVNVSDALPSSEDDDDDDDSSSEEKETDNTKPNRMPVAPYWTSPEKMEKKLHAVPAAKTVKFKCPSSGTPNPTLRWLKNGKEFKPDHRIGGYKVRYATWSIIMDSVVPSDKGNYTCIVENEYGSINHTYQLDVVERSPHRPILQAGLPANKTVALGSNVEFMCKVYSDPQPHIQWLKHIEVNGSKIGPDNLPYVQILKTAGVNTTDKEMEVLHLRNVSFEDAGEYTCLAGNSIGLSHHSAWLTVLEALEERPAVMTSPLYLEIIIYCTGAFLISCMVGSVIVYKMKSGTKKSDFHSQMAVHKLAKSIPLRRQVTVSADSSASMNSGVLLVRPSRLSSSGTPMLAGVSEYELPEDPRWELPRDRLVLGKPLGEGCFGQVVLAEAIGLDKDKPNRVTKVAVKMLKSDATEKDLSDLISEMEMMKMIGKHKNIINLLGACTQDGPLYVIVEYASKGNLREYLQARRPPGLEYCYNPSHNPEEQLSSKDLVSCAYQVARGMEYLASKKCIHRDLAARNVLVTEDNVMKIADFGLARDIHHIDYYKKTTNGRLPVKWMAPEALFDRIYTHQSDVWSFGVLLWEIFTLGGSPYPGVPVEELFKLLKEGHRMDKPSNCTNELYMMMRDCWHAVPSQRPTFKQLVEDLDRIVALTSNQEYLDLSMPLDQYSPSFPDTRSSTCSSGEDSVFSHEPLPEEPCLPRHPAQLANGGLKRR
Sequence of FGFR2 (P21802 22-821): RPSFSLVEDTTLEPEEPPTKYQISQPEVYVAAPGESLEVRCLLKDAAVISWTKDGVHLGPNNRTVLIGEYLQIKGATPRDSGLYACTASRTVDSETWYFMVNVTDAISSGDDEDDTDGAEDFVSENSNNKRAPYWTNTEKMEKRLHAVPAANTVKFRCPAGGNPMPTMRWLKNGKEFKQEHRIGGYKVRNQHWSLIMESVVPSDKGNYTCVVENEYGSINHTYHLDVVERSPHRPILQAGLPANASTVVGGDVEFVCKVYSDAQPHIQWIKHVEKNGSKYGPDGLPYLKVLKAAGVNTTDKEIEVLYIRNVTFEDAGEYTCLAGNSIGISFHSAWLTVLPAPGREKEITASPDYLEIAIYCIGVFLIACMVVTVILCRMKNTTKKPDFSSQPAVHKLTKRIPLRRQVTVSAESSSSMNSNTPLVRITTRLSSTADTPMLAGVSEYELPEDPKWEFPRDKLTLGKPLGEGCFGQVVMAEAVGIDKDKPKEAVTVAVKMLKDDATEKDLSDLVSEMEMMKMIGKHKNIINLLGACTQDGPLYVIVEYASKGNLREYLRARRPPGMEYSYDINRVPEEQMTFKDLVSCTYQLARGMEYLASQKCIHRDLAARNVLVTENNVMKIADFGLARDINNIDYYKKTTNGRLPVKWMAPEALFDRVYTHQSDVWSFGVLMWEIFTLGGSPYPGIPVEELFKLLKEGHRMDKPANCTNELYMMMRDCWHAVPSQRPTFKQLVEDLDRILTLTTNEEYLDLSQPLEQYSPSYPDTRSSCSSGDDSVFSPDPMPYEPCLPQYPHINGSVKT

SMILES	IC50 (FGFR3 enzyme (Millipore); class symbols) [nM]	IC50 (FGFR2; [1]) [nM]	IC50 (FGFR1) [nM]	IC50 (FGFR3 enzyme (Millipore); numeric bounds) [nM]	IC50 (FGFR2) [nM]
COc1cc(CCc2cnc3[nH]c(-c4ccc(N5CCN(C)CC5)cc4)cc3n2)cc(OC)c1 [Example 1, 2-[2-(3,5-dimethoxyphenyl)ethyl]-6-[4-(4-methylpiperazin-1-yl)phenyl]-5H-pyrrolo[2,3-b]pyrazine]	< 100	< 100	< 100		
CCN1CCN(c2ccc(-c3cc4nc(CCc5cc(OC)cc(OC)c5)cnc4[nH]3)cc2)CC1 [Example 2, 2-[2-(3,5-dimethoxyphenyl)ethyl]-6-[4-(4-ethylpiperazin-1-yl)phenyl]-5H-pyrrolo[2,3-b]pyrazine]	< 100	< 100	< 100		
COc1cc(CCc2cnc3[nH]c(-c4ccccc4)cc3n2)cc(OC)c1 [Example 3, 2-(3,5-dimethoxyphenethyl)-6-phenyl-5H-pyrrolo[2,3-b]pyrazine]	< 100	< 100	< 100		
COc1ccc(-c2cc3nc(CCc4cc(OC)cc(OC)c4)cnc3[nH]2)cc1 [Example 5, 2-[2-(3,5-dimethoxyphenyl)ethyl]-6-(4-methoxyphenyl)-5H-pyrrolo[2,3-b]pyrazine]	< 100	< 100	< 100		
COc1cc(CCc2cnc3[nH]c(-c4ccc(CN5CCCCC5)cc4)cc3n2)cc(OC)c1 [Example 11, 2-[2-(3,5-dimethoxyphenyl)ethyl]-6-[4-(piperidin-1-ylmethyl)phenyl]-5H-pyrrolo[2,3-b]pyrazine]	< 100	< 100	< 100		
COCc1ccc(-c2cc3nc(CCc4cc(OC)cc(OC)c4)cnc3[nH]2)cc1 [Example 12, 2-[2-(3,5-dimethoxyphenyl)ethyl]-6-[4-(methoxymethyl)phenyl]-5H-pyrrolo[2,3-b]pyrazine]	< 100	< 100	< 100		
COc1cc(CCc2cnc3[nH]c(-c4ccc(CO)cc4)cc3n2)cc(OC)c1 [Example 13, (4-{2-[2-(3,5-dimethoxyphenyl)ethyl]-5H-pyrrolo[2,3-b]pyrazin-6-yl}phenyl)methanol]	< 100	< 100	< 100		
COc1cc(CCc2cnc3[nH]c(-c4ccc(C(=O)O)cc4)cc3n2)cc(OC)c1 [Example 15, 4-{2-[2-(3,5-dimethoxyphenyl)ethyl]-5H-pyrrolo[2,3-b]pyrazin-6-yl}benzoic acid]	< 100	< 100	< 100		
COc1cc(CCc2cnc3[nH]c(-c4cnc(N(C)C)nc4)cc3n2)cc(OC)c1 [Example 20, 5-{2-[2-(3,5-dimethoxyphenyl)ethyl]-5H-pyrrolo[2,3-b]pyrazin-6-yl}-N,N-dimethylpyrimidin-2-amine]			< 100	> 1000	100 to 500
COc1cc(CCc2cnc3[nH]c(-c4ccc5c(c4)OCO5)cc3n2)cc(OC)c1 [Example 21, 6-(1,3-benzodioxol-5-yl)-2-[2-(3,5-dimethoxyphenyl)ethyl]-5H-pyrrolo[2,3-b]pyrazine]				> 2000	
COc1cc(CCc2cnc3[nH]c(-c4ccc(C5CCN(C)CC5)cc4)cc3n2)cc(OC)c1 [Example 22, 2-[2-(3,5-dimethoxyphenyl)ethyl]-6-[4-(1-methylpiperidin-4-yl)phenyl]-5H-pyrrolo[2,3-b]pyrazine]	< 100	< 100	< 100		
COc1cc(CCc2cnc3[nH]c(C4CCN(C)CC4)cc3n2)cc(OC)c1 [Example 24, 2-[2-(3,5-dimethoxyphenyl)ethyl]-6-(1-methylpiperidin-4-yl)-5H-pyrrolo[2,3-b]pyrazine]				> 2000	
CNC(=O)c1cc2nc(CCc3cc(OC)cc(OC)c3)cnc2[nH]1 [Example 25, 2-[2-(3,5-dimethoxyphenyl)ethyl]-N-methyl-5H-pyrrolo[2,3-b]pyrazine-6-carboxamide]				> 2000	
COc1cc(CCc2cnc3[nH]c(C(=O)N(C)C)cc3n2)cc(OC)c1 [Example 26, 2-[2-(3,5-dimethoxyphenyl)ethyl]-N,N-dimethyl-5H-pyrrolo[2,3-b]pyrazine-6-carboxamide]		500 to 2700		> 2000	
CCN(CC)CC#Cc1cc2nc(CCc3cc(OC)cc(OC)c3)cnc2[nH]1 [Example 27, 3-{2-[2-(3,5-dimethoxyphenyl)ethyl]-5H-pyrrolo[2,3-b]pyrazin-6-yl}-N,N-diethylprop-2-yn-1-amine]			< 100	> 2000	100 to 500
CCN(CC)CCCc1cc2nc(CCc3cc(OC)cc(OC)c3)cnc2[nH]1 [Example 28, 3-{2-[2-(3,5-dimethoxyphenyl)ethyl]-5H-pyrrolo[2,3-b]pyrazin-6-yl}-N,N-diethylpropan-1-amine]				> 2000	
COc1cc(CCc2cnc3[nH]c(-c4cnn(CCN5CCOCC5)c4)cc3n2)cc(OC)c1 [Example 31, 2-[2-(3,5-dimethoxyphenyl)ethyl]-6-[1-(2-morpholin-4-ylethyl)-1H-pyrazol-4-yl]-5H-pyrrolo[2,3-b]pyrazine]	< 100	< 100	< 100		
COc1cc(CCc2cnc3[nH]c(-c4cnn(C5CCOCC5)c4)cc3n2)cc(OC)c1 [Example 32, 2-[2-(3,5-dimethoxyphenyl)ethyl]-6-[1-(tetrahydro-2H-pyran-4-yl)-1H-pyrazol-4-yl]-5H-pyrrolo[2,3-b]pyrazine]	< 100	< 100	< 100		

More lines, main results first:

IC50 (FGFR3 enzyme (Millipore); class symbols) [nM]	IC50 (FGFR2; [1]) [nM]	IC50 (FGFR1) [nM]	SMILES	IC50 (FGFR3 enzyme (Millipore); numeric bounds) [nM]	IC50 (FGFR2) [nM]
< 100	< 100	< 100	COc1cc(CCc2cnc3[nH]c(-c4cnn(CC(C)(C)O)c4)cc3n2)cc(OC)c1 [Example 33, 1-(4-{2-[2-(3,5-dimethoxyphenyl)ethyl]-5H-pyrrolo[2,3-b]pyrazin-6-yl}-1H-pyrazol-1-yl)-2-methylpropan-2-ol]		
< 100	< 100	< 100	COc1cc(CCc2cnc3[nH]c(-c4cnn(CCN(C)C)c4)cc3n2)cc(OC)c1 [Example 34, 2-(4-{2-[2-(3,5-dimethoxyphenyl)ethyl]-5H-pyrrolo[2,3-b]pyrazin-6-yl}-1H-pyrazol-1-yl)-N,N-dimethylethanamine]		
< 100	< 100	< 100	COc1cc(CCc2cnc3[nH]c(-c4cnn(C(CC#N)C5CCCC5)c4)cc3n2)cc(OC)c1 (stereo not shown) [Example 35, 3-cyclopentyl-3-(4-{2-[2-(3,5-dimethoxyphenyl)ethyl]-5H-pyrrolo[2,3-b]pyrazin-6-yl}-1H-pyrazol-1-yl)propanenitrile]		
< 100	< 100	< 100	COc1cc(CCc2cnc3[nH]c(-c4cnn(C(C)CC#N)c4)cc3n2)cc(OC)c1 (stereo not shown) [Example 36, 3-(4-(2-(3,5-dimethoxyphenethyl)-5H-pyrrolo[2,3-b]pyrazin-6-yl)-1H-pyrazol-1-l)butanenitrile]		
< 100	< 100	< 100	COc1cc(CCc2cnc3[nH]c(-c4cnn(C[C@H](C)O)c4)cc3n2)cc(OC)c1 [Example 39, (2S)-1-(4-{2-[2-(3,5-dimethoxyphenyl)ethyl]-5H-pyrrolo[2,3-b]pyrazin-6-yl}-1H-pyrazol-1-yl)propan-2-ol]		
< 100	< 100	< 100	COc1cc(CCc2cnc3[nH]c(-c4cnn(CCN5CCC(O)CC5)c4)cc3n2)cc(OC)c1 [Example 40, 1-[2-(4-{2-[2-(3,5-dimethoxyphenyl)ethyl]-5H-pyrrolo[2,3-b]pyrazin-6-yl}-1H-pyrazol-1-yl)ethyl]piperidin-4-ol]		
< 100	< 100	< 100	COc1cc(CCc2cnc3[nH]c(-c4cnn(CCN5CCCCC5)c4)cc3n2)cc(OC)c1 [Example 41, 2-[2-(3,5-dimethoxyphenyl)ethyl]-6-[1-(2-piperidin-1-ylethyl)-1H-pyrazol-4-yl]-5H-pyrrolo[2,3-b]pyrazine]		
< 100	< 100	< 100	COc1cc(CCc2cnc3[nH]c(-c4cnn(CC(=O)N5CCN(C)CC5)c4)cc3n2)cc(OC)c1 [Example 44, 2-(4-(2-(3,5-dimethoxyphenethyl)-5H-pyrrolo[2,3-b]pyrazin-6-yl)-1H-pyrazol-1-yl)-1-(4-methylpiperazin-1-yl)ethanone]		
< 100	< 100	< 100	COc1cc(CCc2cnc3[nH]c(-c4ccc(N5CCN(C)CC5)cc4)c(C#N)c3n2)cc(OC)c1 [Example 45, 2-[2-(3,5-dimethoxyphenyl)ethyl]-6-[4-(4-methylpiperazin-1-yl)phenyl]-5H-pyrrolo[2,3-b]pyrazine-7-carbonitrile]		
< 100	< 100	< 100	COc1cc(CCc2cnc3[nH]c(-c4ccc(N5CCN(C)CC5)cc4)c(Br)c3n2)cc(OC)c1 [Example 46, 7-bromo-2-[2-(3,5-dimethoxyphenyl)ethyl]-6-[4-(4-methylpiperazin-1-yl)phenyl]-5H-pyrrolo[2,3-b]pyrazine]		
< 100	< 100	< 100	COc1cc(CCc2cnc3[nH]c(-c4ccc(N5CCN(C)CC5)cc4)c(Cl)c3n2)cc(OC)c1 [Example 47, 7-chloro-2-[2-(3,5-dimethoxyphenyl)ethyl]-6-[4-(4-methylpiperazin-1-yl)phenyl]-5H-pyrrolo[2,3-b]pyrazine]		
	< 100	< 100	COc1cc(CCc2cnc3[nH]c(-c4ccc(F)c(C#N)c4)cc3n2)cc(OC)c1 [Example 65, 5-(2-(3,5-Dimethoxyphenethyl)-5H-pyrrolo[2,3-b]pyrazin-6-yl)-2-fluorobenzonitrile]		
	< 100	< 100	COc1cc(CCc2cnc3[nH]c(-c4ccc(N5CCN(C)CC5)c(C#N)c4)cc3n2)cc(OC)c1 [Example 72, 5-(2-(3,5-Dimethoxyphenethyl)-5H-pyrrolo[2,3-b]pyrazin-6-yl)-2-(4-methylpiperazin-1-yl)benzonitrile]		
